Assay [1] has as its target T1, AGTR1 (Homo sapiens, UniProt P30556).
T1 construct: host or cells: Pathunter CHO-K1 AGTR1 β-arrestin cell line (CHO-K1)
T1 sequence (P30556 1-359): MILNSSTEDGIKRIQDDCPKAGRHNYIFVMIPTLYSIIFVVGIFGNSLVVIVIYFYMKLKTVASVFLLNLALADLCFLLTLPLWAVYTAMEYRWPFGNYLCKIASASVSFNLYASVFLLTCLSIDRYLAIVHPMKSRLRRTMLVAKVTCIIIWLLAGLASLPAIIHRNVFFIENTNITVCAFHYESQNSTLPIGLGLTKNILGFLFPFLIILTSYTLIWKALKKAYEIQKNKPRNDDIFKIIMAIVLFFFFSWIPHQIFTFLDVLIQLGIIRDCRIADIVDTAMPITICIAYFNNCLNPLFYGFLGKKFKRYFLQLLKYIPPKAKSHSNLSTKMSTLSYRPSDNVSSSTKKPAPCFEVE
Nature of the assay: DiscoveRx β-arrestin2 recruitment assay (enzyme complementation, Pathunter CHO-K1 AGTR1 β-arrestin cell line). The assay is classed as cell-based. Particulars: DiscoveRx β-arrestin2 recruitment; for DiscoveRx β-arrestin2 Ymax (%): maximal response. In a few lines:
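Chemiluminescent enzyme-complementation read-out of β-arrestin2 recruitment to AGTR1 in engineered CHO-K1 cells after 90 min compound exposure at 37° C. Values are 4-parameter logistic EC50s in agonist mode, IC50s in antagonist mode, with efficacy relative to the maximal All response.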

Assay [2] has as its target T1, AGTR1. Nature of the assay: DiscoveRx IP1 accumulation assay (HTRF), agonist mode, Pathunter CHO-K1 AGTR1 β-arrestin cell line. The format is cell-based. Particulars: for pEC50: read-out: IP-1 EC50. The procedure, abridged: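 Agonist mode in CHO-K1 AGTR1 β-arrestin cells plated 14-16 h before; compounds at varying concentrations for 90 min at 37° C, IP1 accumulation read by HTRF (D2-conjugate and anti-IP1 cryptate, 20 min room temperature). EC50 from 4-parameter logistic fit; activity given as percentage of maximal AII effect.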

For assay [3], the target named is T2, hAT1R (Homo sapiens, UniProt P30556).
T2 sequence (P30556 1-359): T1 sequence (P30556 1-359)
The assay is described as follows: cell-based.

Assay [4] concerns the target T2, hAT1R. Nature of the assay: cell-based. The note with it: agonist mode; for pEC50: read-out: BRET P63 EC50.
The mark [5] stands for this setting: section of the 42nd table ending at r951, example numbering restarts after the DiscoveRx section, read-out: β-arrestin2 EC50.
Where [6] appears, read: Low AT1R Expression, read-out: BRET β-Arrestin2 Low AT1R Expression EC50.

pEC50: −log10 of the molar value. Read-outs that look alike come from different tables or passages of the source.

For the molecule `CCCC1=NC2(CCOC2)C(=O)N1Cc1ccc(-c2cc(-c3ccccc3O)ccc2-c2nnn[nH]2)cc1` (single isomer, unassigned) [Example 164], the negative-log EC50 (pEC50) in assay [1] was 7.12; in assay [2], 6.64; in assay [3] (setting [5]), 6.80; in assay [4] it was 6.98. In assay [1], the “DiscoveRx β-arrestin2 Ymax (%)” value was determined as 58.7%. For the same molecule, the “IP-1 Ymax (%)” value in assay [2] worked out at 17.3%. For the same molecule, the “BRET P63 Ymax” value in assay [4] is recorded as 15.6%.

On to `CCC1=NC2(CCOC2)C(=O)N1Cc1ccc(-c2cc(-c3cccc(C)c3)ccc2-c2nnn[nH]2)cc1` (single isomer, unassigned) [Example 169], for which, in assay [1], the pEC50 is 6.96 and the “DiscoveRx β-arrestin2 Ymax (%)” value is on record as 50.1%. Besides, in assay [2], the “IP-1 Ymax (%)” value is 14.5% and the pEC50 was 6.32. In addition, the pEC50 in assay [3] (setting [5]) was 6.57. For the same molecule, in assay [4], the “BRET P63 Ymax” value is 13.3% and the pEC50 is 6.90.

On to `CCc1nc2c(C)cc(C)nc2n1Cc1ccc(-c2cc(-c3cc(C)c(F)cn3)ccc2-c2nn[nH]n2)cc1` [Example 66], for which the negative logarithm of the EC50 (pEC50) was 8.24 in assay [1], 8.07 in assay [2], 7.78 in assay [3] (setting [6]) and less than 5.00 in assay [4]. The “DiscoveRx β-arrestin2 Ymax (%)” value in assay [1] turned out to be 25.8%. Moreover, the “IP-1 Ymax (%)” value in assay [2] is listed as 6.9%. For the same molecule, the “BRET β-Arrestin2 Low AT1R Expression Ymax (%)” value in assay [3] (Low AT1R Expression) is 39.4%.

Consider `CCc1nc2c(C)cc(C)nc2n1Cc1ccc(-c2cc(-c3cc(OC)ccn3)ccc2-c2nn[nH]n2)cc1` [Example 62, 2-Ethyl-3-((5′-(4-methoxypyridin-2-yl)-2′-(2H-tetrazol-5-yl)-[1,1′-biphenyl]-4-yl)methyl)-5,7-dimethyl-3H-imidazo[4,5-b]pyridine], for which the pEC50 in assay [1] was 7.82; in assay [2] it was 7.54; in assay [3] (setting [6]), 8.43; in assay [4], 8.38. Besides, the “DiscoveRx β-arrestin2 Ymax (%)” value in assay [1] turned out to be 50.0%. In addition, the “IP-1 Ymax (%)” value in assay [2] is reported as 22.7%. In addition, the “BRET β-Arrestin2 Low AT1R Expression Ymax (%)” value in assay [3] (Low AT1R Expression) came out at 74.7%. Besides, in assay [4], the “BRET P63 Ymax” value was 35.7%.

`CCC1=NC2(CCOC2)C(=O)N1Cc1ccc(-c2cc(-c3ccccc3)ccc2-c2nnn[nH]2)cc1` (single isomer, unassigned) [Example 168]: the pEC50 was 6.45 in assay [1], 6.08 in assay [2], 6.00 in assay [3] (setting [5]) and less than 5.00 in assay [4]. In addition, in assay [1], the “DiscoveRx β-arrestin2 Ymax (%)” value was 34.5%. The “IP-1 Ymax (%)” value in assay [2] came out at 13.8%.

On to `CCCCC1=NC2(CCOC2)C(=O)N1Cc1ccc(-c2cc(-c3cc(C)ccn3)ccc2-c2nnn[nH]2)cc1` (single isomer, unassigned) [Example 154], for which, in assay [1], the pEC50 was 7.85 and the “DiscoveRx β-arrestin2 Ymax (%)” value turned out to be 48.7%. Further, in assay [2], the “IP-1 Ymax (%)” value is on record as 14.4% and the pEC50 is 7.39. Also, the pEC50 in assay [3] (setting [5]) was 7.19. In assay [4], the “BRET P63 Ymax” value was determined as 25.3% and the pEC50 is 7.24.

For the molecule `CCc1cn(-c2ccc(-c3nnn[nH]3)c(-c3ccc(Cn4c(CC)nc5c(C)cc(C)nc54)cc3)c2)nn1` [Example 231], in assay [1], the pEC50 was 7.54 and the “DiscoveRx β-arrestin2 Ymax (%)” value stood at 36.8%. In assay [2], the “IP-1 Ymax (%)” value is on record as 8.4% and the pEC50 is 7.52. Also, the pEC50 in assay [3] (setting [5]) is 7.01. In assay [4], the “BRET P63 Ymax” value is on record as 13.8% and the pEC50 is 7.44.

For the molecule `CCCCC1=NC2(CCOCC2)C(=O)N1Cc1ccc(-c2cc(-c3ccccc3)ccc2-c2nnn[nH]2)cc1` [Example 156], the pEC50 in assay [1] is 7.07; in assay [2] it was 6.72; in assay [3] (setting [5]) it was 6.60; in assay [4], less than 4.00. The “DiscoveRx β-arrestin2 Ymax (%)” value in assay [1] amounted to 19.9%. Moreover, the “IP-1 Ymax (%)” value in assay [2] was found to be 7.2%.

Regarding `Cc1ccnc(-c2ccc(-c3nn[nH]n3)c(-c3ccc(CN4C(=O)C5(CCCC5)N=C4C4CC4)cc3)c2)c1` [Example 120, 2-cyclopropyl-3-((5′-(4-methylpyridin-2-yl)-2′-(2H-tetrazol-5-yl)-[1,1′-biphenyl]-4-yl)methyl)-1,3-diazaspiro[4.4]non-1-en-4-one], in assay [1], the pEC50 was 7.90 and the “DiscoveRx β-arrestin2 Ymax (%)” value amounted to 44.5%. Further, in assay [2], the “IP-1 Ymax (%)” value is 20.7% and the pEC50 is 7.12. The “BRET β-Arrestin2 Low AT1R Expression Ymax (%)” value in assay [3] (Low AT1R Expression) is given as 50.1%. Moreover, in assay [3] (setting [6]), the pEC50 was 7.46. For the same molecule, in assay [4], the “BRET P63 Ymax” value is on record as 17.8% and the pEC50 was 7.74.

`Cc1ccnc(-c2ccc(-c3nn[nH]n3)c(-c3ccc(CN4C(=O)C5(CCCC5)N=C4C(C)C)cc3)c2)c1` [Example 118]: in assay [1], the pEC50 was 7.18 and the “DiscoveRx β-arrestin2 Ymax (%)” value was determined as 50.0%. Moreover, in assay [2], the “IP-1 Ymax (%)” value turned out to be 17.1% and the pEC50 is 6.81. Also, the “BRET β-Arrestin2 Low AT1R Expression Ymax (%)” value in assay [3] (Low AT1R Expression) is 78.7%. Also, the pEC50 in assay [3] (setting [6]) is 6.76. Besides, in assay [4], the “BRET P63 Ymax” value amounted to 21.8% and the pEC50 is 6.99.

Regarding `CCCCC1=NC2(CCOCC2)C(=O)N1Cc1ccc(-c2cc(-c3cccc(C)c3)ccc2-c2nn[nH]n2)cc1` [Example 155, 2-butyl-3-((3″-methyl-6′-(2H-tetrazol-5-yl)-[1,1′:3′,1″-terphenyl]-4-yl)methyl)-8-oxa-1,3-diazaspiro[4.5]dec-1-en-4-one], the pEC50 is 7.39 in assay [1], less than 4.00 in assay [2], 7.37 in assay [3] (setting [5]) and less than 4.00 in assay [4]. Further, the “DiscoveRx β-arrestin2 Ymax (%)” value in assay [1] came out at 32.0%.

With `CCc1nc2c(C)cc(C)nc2n1Cc1ccc(-c2cc(-n3cc4ccccc4n3)ccc2-c2nnn[nH]2)cc1` [Example 216, 3-((5′-(2H-Indazol-2-yl)-2′-(1H-tetrazol-5-yl)-[1,1′-biphenyl]-4-yl)methyl)-2-ethyl-5,7-dimethyl-3H-imidazo[4,5-b]pyridine], in assay [1], the pEC50 is 8.02 and the “DiscoveRx β-arrestin2 Ymax (%)” value is recorded as 33.4%. Moreover, in assay [2], the “IP-1 Ymax (%)” value is 10.6% and the pEC50 was 7.54. Also, the pEC50 in assay [3] (setting [5]) is 8.18. Further, in assay [4], the “BRET P63 Ymax” value was determined as 10.1% and the negative-log EC50 (pEC50) was 8.74.

Regarding `CCc1nc2c(C)cc(C)nc2n1Cc1ccc(-c2cc(-c3cn(CCF)nn3)ccc2-c2nnn[nH]2)cc1` [Example 239], in assay [1], the pEC50 was 8.27 and the “DiscoveRx β-arrestin2 Ymax (%)” value is recorded as 59.1%. In addition, in assay [2], the “IP-1 Ymax (%)” value is 34.2% and the negative logarithm of the EC50 (pEC50) is 7.51. The pEC50 in assay [3] (setting [5]) was 8.05. In assay [4], the “BRET P63 Ymax” value is 44.3% and the negative logarithm of the EC50 (pEC50) is 7.78.

Turning to `CCCCC1=NC2(CCOC2)C(=O)N1Cc1ccc(-c2cc(-c3cccc(C)c3)ccc2-c2nnn[nH]2)cc1` (single isomer, unassigned) [Example 153], the pEC50 is 7.54 in assay [1], 6.64 in assay [2], 7.27 in assay [3] (setting [5]) and less than 4.00 in assay [4]. Besides, the “DiscoveRx β-arrestin2 Ymax (%)” value in assay [1] is 19.6%. Besides, the “IP-1 Ymax (%)” value in assay [2] turned out to be 6.0%.

For `CCc1nc2c(C)cc(C)nc2n1Cc1ccc(-c2cc(-n3nnc4ccccc43)ccc2-c2nnn[nH]2)cc1` [Example 233, 1-(4′-((2-Ethyl-5,7-dimethyl-3H-imidazo[4,5-b]pyridin-3-yl)methyl)-6-(1H-tetrazol-5-yl)-[1,1′-biphenyl]-3-yl)-1H-benzo[d][1,2,3]triazole], in assay [1], the pEC50 was 7.98 and the “DiscoveRx β-arrestin2 Ymax (%)” value is reported as 59.2%. Besides, in assay [2], the “IP-1 Ymax (%)” value came to 10.2% and the pEC50 was 7.50. In addition, the pEC50 in assay [3] (setting [5]) was 8.01. In addition, in assay [4], the “BRET P63 Ymax” value stood at 17.9% and the pEC50 was 7.88.

The values are drawn from patent publication US12037324B2, “Biarylmethyl heterocycles” (Université de Montréal, priority 2016, dated 2024).
